Experimental data from patent publication US6362369B1, “Phthalic acid diamide derivatives fluorine-containing aniline compounds as starting material, agricultural and horticultural insecticides, and a method for application of the insecticides” (Nihon Nohyaku Co., Ltd., priority 1997, dated 2002).

Columns and labels:
[1] = tested on: diamondback moth (Plutella xylostella); assay: Insecticidal effect on diamondback moth (Test Example 1); type: in vivo; conditions: mortality judged according to the criterion shown in Test Example 1
In short: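 Read-out was mortality from hatched-insect counts taken 6 days after the egg-bearing cabbage seedling was immersed, graded by set criteria. Seedlings were air-dried and kept at 25° C after treatment. Groups of 10 insects, in triplicate.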

[2] = tested on: rice leafroller (Cnaphalocrocis medinalis); assay: Insecticidal effect on rice leafroller (Test Example 3); type: in vivo; conditions: 500 ppm, rice lamina dip, third-instar larvae, four days after inoculation, 25° C., humidity 70%
In short: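 Groups of 10 third-instar larvae, in triplicate, are placed on air-dried lamina resting on wet filter paper. Incubation runs four days at 25° C with 70% humidity before survivors and dead are tallied.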

Row | SMILES | Insecticidal effect on diamondback moth (Test Example 1), judged grade [1] | Insecticidal effect on rice leafroller (Test Example 3), judged grade [2]
1 | Cc1cc(C(F)(F)C(F)(F)F)ccc1NC(=O)c1c(F)cccc1C(=O)NC(C)C [compound 551] | A (100) | A (100)
2 | Cc1cc(OC(F)(F)C(Cl)(Cl)Cl)ccc1NC(=O)c1c(F)cccc1C(=O)NC(C)C [compound 552] | A (100) | B (99-90)
3 | Cc1cc(OC(F)(F)C(F)(F)Br)ccc1NC(=O)c1c(F)cccc1C(=O)NC(C)C [compound 554] | A (100) | A (100)
4 | Cc1cc(C(F)(F)C(F)(F)C(F)(F)F)ccc1NC(=O)c1c(F)cccc1C(=O)NC(C)C [compound 555] | A (100) | B (99-90)
5 | CC(C)NC(=O)c1cccc(F)c1C(=O)Nc1ccc(OC(F)(F)F)cc1Cl [compound 562] | A (100) | A (100)
6 | CC(C)NC(=O)c1cccc(F)c1C(=O)Nc1ccc(OC(F)(F)F)cc1Br [compound 563] | A (100) | A (100)
7 | Cc1cc(OC(F)(F)F)ccc1NC(=O)c1c(F)cccc1C(=O)NC(C)C [compound 564] | A (100) | B (99-90)
8 | Cc1cc(OC(F)(F)Br)ccc1NC(=O)c1c(F)cccc1C(=O)NC(C)C [compound 565] | A (100) | A (100)
9 | Cc1cc(OC(F)(F)C(F)F)ccc1NC(=O)c1c(F)cccc1C(=O)NC(C)C [compound 566] | A (100) | B (99-90)
10 | Cc1cc(Sc2ccc(Cl)cc2)ccc1NC(=O)c1c(F)cccc1C(=O)NC(C)C [compound 575] | A (100) | A (100)
11 | Cc1cc(Oc2ccc(C(F)(F)F)cn2)ccc1NC(=O)c1c(F)cccc1C(=O)NC(C)C [compound 576] | A (100) | C (89-80)
12 | Cc1cc(Oc2ncc(C(F)(F)F)cc2Cl)ccc1NC(=O)c1c(F)cccc1C(=O)NC(C)C [compound 577] | A (100) | A (100)
13 | CC(C)NC(=O)c1cccc(F)c1C(=O)Nc1ccc2c(c1)OCO2 [compound 580] | A (100) | A (100)
14 | Cc1cc(Cl)ccc1NC(=O)c1c(F)ccc(F)c1C(=O)NC(C)C [compound 582] | A (100) | A (100)
15 | CC(C)NC(=O)c1c(C(=O)Nc2ccccc2)cccc1[N+](=O)[O-] [compound 585] | A (100) | A (100)
16 | CC(C)NC(=O)c1c(C(=O)Nc2ccccc2Cl)cccc1[N+](=O)[O-] [compound 586] | A (100) | D (79-50)
17 | CC(C)NC(=O)c1c(C(=O)Nc2ccccc2Br)cccc1[N+](=O)[O-] [compound 589] | A (100) | A (100)
18 | CC(C)NC(=O)c1c(C(=O)Nc2ccc([N+](=O)[O-])cc2)cccc1[N+](=O)[O-] [compound 596] | D (79-50) | D (79-50)
19 | CCc1ccccc1NC(=O)c1cccc([N+](=O)[O-])c1C(=O)NC(C)C [compound 602] | A (100) | A (100)
20 | CC(C)NC(=O)c1c(C(=O)Nc2ccccc2C(C)C)cccc1[N+](=O)[O-] [compound 603] | B (99-90) | C (89-80)

Row | SMILES | Insecticidal effect on diamondback moth (Test Example 1), judged grade [1] | Insecticidal effect on rice leafroller (Test Example 3), judged grade [2]
21 | CC(C)NC(=O)c1c(C(=O)Nc2ccc(C(C)C)cc2)cccc1[N+](=O)[O-] [compound 604] | A (100) | D (79-50)
22 | CC(C)NC(=O)c1c(C(=O)Nc2ccc(C(F)(F)C(F)(F)C(F)(F)C(F)(F)F)cc2)cccc1[N+](=O)[O-] [compound 611] | A (100) | A (100)
23 | COc1ccccc1NC(=O)c1cccc([N+](=O)[O-])c1C(=O)NC(C)C [compound 612] | A (100) | D (79-50)
24 | CC(C)NC(=O)c1c(C(=O)Nc2cccc(OC(F)F)c2)cccc1[N+](=O)[O-] [compound 616] | A (100) | D (79-50)
25 | CC(C)NC(=O)c1c(C(=O)Nc2cccc(SC(F)(F)F)c2)cccc1[N+](=O)[O-] [compound 623] | A (100) | A (100)
26 | CC(C)NC(=O)c1c(C(=O)Nc2cc(Cl)ccc2Cl)cccc1[N+](=O)[O-] [compound 634] | A (100) | D (79-50)
27 | CC(C)NC(=O)c1c(C(=O)Nc2ccc(F)c(Cl)c2)cccc1[N+](=O)[O-] [compound 643] | A (100) | A (100)
28 | Cc1cccc(NC(=O)c2cccc([N+](=O)[O-])c2C(=O)NC(C)C)c1C [compound 647] | A (100) | B (99-90)
29 | Cc1ccc(C)c(NC(=O)c2cccc([N+](=O)[O-])c2C(=O)NC(C)C)c1 [compound 649] | A (100) | C (89-80)
30 | Cc1ccc(NC(=O)c2cccc([N+](=O)[O-])c2C(=O)NC(C)C)c(Cl)c1 [compound 656] | A (100) | A (100)
31 | CC(C)NC(=O)c1c(C(=O)Nc2ccc(C(F)(F)F)cc2Cl)cccc1[N+](=O)[O-] [compound 660] | A (100) | A (100)
32 | CC(C)NC(=O)c1c(C(=O)Nc2cc(C(F)(F)F)ccc2Cl)cccc1[N+](=O)[O-] [compound 661] | B (99-90) | D (79-50)
33 | Cc1cccc(Cl)c1NC(=O)c1cccc([N+](=O)[O-])c1C(=O)NC(C)C [compound 666] | A (100) | D (79-50)
34 | Cc1ccc(NC(=O)c2cccc([N+](=O)[O-])c2C(=O)NC(C)C)c(C)c1Cl [compound 670] | A (100) | D (79-50)
35 | Cc1cc(Br)ccc1NC(=O)c1cccc([N+](=O)[O-])c1C(=O)NC(C)C [compound 671] | A (100) | D (79-50)
36 | CC(C)NC(=O)c1c(C(=O)Nc2ccc(Cl)cc2C(F)(F)F)cccc1[N+](=O)[O-] [compound 679] | A (100) | A (100)
37 | Cc1cc(NC(=O)c2cccc([N+](=O)[O-])c2C(=O)NC(C)C)ccc1Br [compound 680] | A (100) | D (79-50)
38 | Cc1cc(C(F)(F)F)ccc1NC(=O)c1cccc([N+](=O)[O-])c1C(=O)NC(C)C [compound 682] | A (100) | A (100)
39 | COc1ccc(NC(=O)c2cccc([N+](=O)[O-])c2C(=O)NC(C)C)c(C)c1 [compound 688] | A (100) | A (100)
40 | Cc1cc(OC(C)C)ccc1NC(=O)c1cccc([N+](=O)[O-])c1C(=O)NC(C)C [compound 690] | A (100) | A (100)
